Results taken from US11001569B2, “6-membered heteroaromatic substituted cyanoindoline derivatives as NIK inhibitors” (Janssen Pharmaceutica NV, priority 2016, dated 2021).

Key:
[1] = molecular target: recombinant human NF-kappaB-inducing Kinase (NIK/MAP3K14) (Homo sapiens, UniProt Q99558); assay: Inhibition of auto-phosphorylation of recombinant human NIK/MAP3K14 activity (AlphaScreen); assay type: biochemical; conditions: 25 microM ATP, averaged over all measurements on all batches
[2] = test system: P-IKKα levels in L363 (NIK translocated multiple myeloma) cells; assay: Effect of compounds on P-IKKα levels in L363 cells (Mesoscale sandwich immuno-assay); assay type: cell-based, human; conditions: Homo sapiens, L-363, 2 h, 2 hr treatment, averaged values, read-out: Inhibition of pIKKα_L-363 (IC50 (nM))
Procedure, shortened: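 BAFF-stimulated (1 μg/ml stock) L363 cells preincubated 24 hr at 37° C, then treated 2 hr with compound (final 1% DMSO, 8-point 1:3 dilutions). Lysate P-IKKα measured by Mesoscale sandwich immunoassay; IC50 from sigmoidal fit of % inhibition versus log concentration.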

[3] = test system: JJN-3 (NIK translocated) multiple myeloma cells; assay: Antiproliferative activity on JJN-3 multiple myeloma cells (CellTiter-Glo); assay type: cell-based, human; conditions: Homo sapiens, JJN-3, 96 h, JJN-3 (NIK translocated) cells, 96 hr treatment, averaged values, read-out: JJN-3 Proliferation inhibition (IC50 (nM))
Procedure, shortened: (§1)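 Cells plated at 15000 (JJN3) or 20000 (KMS12BM) per well and treated 96 h at 37° C, 5% CO2, final DMSO 0.3%, 9-point 1:3 dilutions. Viability by CellTiter-Glo luminescence; time-zero blank subtracted, growth expressed as percent of untreated control.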

[4] = test system: KMS12-BM (NIK WT) multiple myeloma cells; assay: Antiproliferative activity on KMS12-BM multiple myeloma cells (CellTiter-Glo); assay type: cell-based, human; conditions: Homo sapiens, KMS-12-BM, 96 h, 96 hr treatment, averaged values, read-out: KMS-12 Proliferation inhibition (IC50 (nM))
Procedure, shortened: as §1

recombinant human NF-kappaB-inducing Kinase (NIK/MAP3K14), sequence (Q99558 whole entry): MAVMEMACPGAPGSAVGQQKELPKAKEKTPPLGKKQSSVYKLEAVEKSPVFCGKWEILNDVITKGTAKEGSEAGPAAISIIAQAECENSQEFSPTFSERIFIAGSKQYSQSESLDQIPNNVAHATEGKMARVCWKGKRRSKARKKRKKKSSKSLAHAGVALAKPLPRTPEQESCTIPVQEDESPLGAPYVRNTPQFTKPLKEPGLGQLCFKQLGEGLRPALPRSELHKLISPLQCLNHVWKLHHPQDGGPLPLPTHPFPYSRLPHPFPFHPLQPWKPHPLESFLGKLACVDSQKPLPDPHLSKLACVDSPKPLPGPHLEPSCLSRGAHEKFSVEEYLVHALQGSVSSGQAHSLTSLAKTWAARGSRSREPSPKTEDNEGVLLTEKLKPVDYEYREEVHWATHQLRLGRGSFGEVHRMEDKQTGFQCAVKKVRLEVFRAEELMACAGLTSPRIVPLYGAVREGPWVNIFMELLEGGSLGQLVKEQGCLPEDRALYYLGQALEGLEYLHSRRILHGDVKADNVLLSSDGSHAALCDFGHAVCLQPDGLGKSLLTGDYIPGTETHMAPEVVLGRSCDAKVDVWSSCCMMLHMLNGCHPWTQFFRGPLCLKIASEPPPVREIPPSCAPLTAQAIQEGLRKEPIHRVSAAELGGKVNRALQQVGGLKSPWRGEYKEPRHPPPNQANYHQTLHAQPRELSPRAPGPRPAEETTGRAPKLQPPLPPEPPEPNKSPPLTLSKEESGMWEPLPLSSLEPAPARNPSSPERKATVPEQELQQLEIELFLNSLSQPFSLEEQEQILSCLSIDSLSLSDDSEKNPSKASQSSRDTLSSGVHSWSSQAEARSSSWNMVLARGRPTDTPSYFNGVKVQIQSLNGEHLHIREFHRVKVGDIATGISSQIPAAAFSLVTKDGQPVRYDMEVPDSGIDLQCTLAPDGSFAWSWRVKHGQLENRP

| Structure (SMILES) | IC50 [1] | IC50 [2] | IC50 [3] | IC50 [4] | melting point |
| --- | --- | --- | --- | --- | --- |
| COc1cnc(C)cc1Nc1nccc(-c2cc(C#N)c3c(c2)[C@@](C)(CO)CN3)n1 [Compound 162] | 3 nM | 1.3 nM | 60 nM | > 10000 nM | > 260 °C |
| Cc1ncc(C2CCN(C)CC2)cc1Nc1nccc(-c2cc(C#N)c3c(c2)[C@@](C)(CO)CN3)n1 [Compound 164] | 102 nM | 1180 nM | 1180 nM | 1660 nM | 121 °C |
| Cc1cc(Nc2nccc(-c3cc(C#N)c4c(c3)[C@@](C)(CO)CN4)n2)c(C)cn1 [Compound 167] | 1.7 nM | 2.8 nM | 30 nM | > 10000 nM | 263 °C |
| COc1nc(C)c(Nc2nccc(-c3cc(C#N)c4c(c3)[C@@](C)(CO)CN4)n2)cc1C [Compound 168] | 3 nM | 2.4 nM | 39 nM | > 10000 nM | 260 °C |
| Cc1ncc(CO)cc1Nc1nccc(-c2cc(C#N)c3c(c2)[C@@](C)(CO)CN3)n1 [Compound 169] | 2.7 nM | 9.9 nM | 263 nM | 4900 nM | > 260 °C |
| Cc1cnc(C#N)cc1Nc1nccc(-c2cc(C#N)c3c(c2)[C@@](C)(CO)CN3)n1 [Compound 170] | 1.1 nM | 1 nM | 5 nM | > 10000 nM | 279 °C |

Further lines, results first:

| IC50 [1] | IC50 [2] | IC50 [3] | IC50 [4] | melting point | Structure (SMILES) |
| --- | --- | --- | --- | --- | --- |
| 15.1 nM | 69.2 nM | 933 nM | > 10000 nM | 225 °C | Cc1cnc(C2CCOCC2)c(Nc2nccc(-c3cc(C#N)c4c(c3)[C@@](C)(CO)CN4)n2)c1 [Compound 173] |
| 5.5 nM | 21.4 nM | 205 nM | > 10000 nM | 115 °C | COCCCc1ncc(C)cc1Nc1nccc(-c2cc(C#N)c3c(c2)[C@@](C)(CO)CN3)n1 [Compound 177] |
| 15.1 nM | 110 nM | 49 nM | > 10000 nM | 156 °C | Cc1cnc(CCNC2CC2)c(Nc2nccc(-c3cc(C#N)c4c(c3)[C@@](C)(CO)CN4)n2)c1 [Compound 182] |
| 15.8 nM | 40.7 nM | 63 nM | > 10000 nM | 209 °C | COc1ncc(C(F)(F)F)cc1Nc1nccc(-c2cc(C#N)c3c(c2)[C@@](C)(CO)CN3)n1 [Compound 183] |
